The supplement of paper PMC11208160

Assay: recombinant barcode read abundance after kanamycin selection (control-corrected) (log10(CPM+1)); higher = more efficient recombination; sequences stand for … in AGTGCAGAGAAAATCGGCCAGTTTTCTCTGCCTGCAGTCCGCATGCCGT…AGATTTATGCAGCGGACTGCCTTTCTCCCAAAGTGATAAACCGGACAGTATCATGGACCGGTTTTCCCGGTAATCCGTATTTGCAAGGTTGGTTTCACT; site = the 11-nt target
Method in brief: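 Targets and IS621 bridge RNA target-binding loops were paired in oligos, each with a promoter, a barcode and the J23119-driven first 104 bridge RNA bases. A vector carrying the remaining 73 bp and a T7-inducible recombinase received these by Gibson cloning, and the pool was co-electroporated into E. coli with a donor plasmid. Duplicate plates contained chloramphenicol/ampicillin LB agar (control) or chloramphenicol/ampicillin/kanamycin with 0.1 mM IPTG. Recombination efficiency comes from averaged, control-corrected counts per million of recombinant-junction barcodes, reported as log10(CPM+1).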
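Note: IS621 recombinase and bridge RNA in Escherichia coli cells.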

Sequence	recombinant barcode read abundance (log10)
TCGAAGCCTTGGGTTCTAACCTGTTGCCT (site TCGAAACCTAG)	0.0823
TCGAAGCCTTGGGTTCTAACCTGTTGCCT (site TCGAACCCTAG)	0.207
TCGAAGCCTTGGGTTCTAACCTGTTGCCT (site TCGAAGCCTAG)	0.324
TCGAAGCCTTGGGTTCTAACCTGTTGCCT (site TCGAATCCTAG)	0.101
TCGAATTCTTGGGTTCTAACCTGTTGCCT (site TCGAATTCTAG)	0.109
TCGAATTCTTGGGTTCTAACCTGTTGCCT (site TCGATGTCTAG)	0.0943
TCGAGAGCTTGGGTTCTAACCTGTTGCCG (site TCGAGAGCTCG)	0.441
TCGAGAGCTTGGGTTCTAACCTGTTGCCG (site TCGAGAGCTTA)	0.203
TCGAGTCCTTGGGTTCTAACCTGTTGCCT (site TCGAGTACTAG)	0.766
TCGAGTCCTTGGGTTCTAACCTGTTGCCT (site TCGAGTCCTAG)	0.101
TCGAGTCCTTGGGTTCTAACCTGTTGCCT (site TCGAGTGCTAG)	0.179
TCGAGTCCTTGGGTTCTAACCTGTTGCCT (site TCGAGTTCTAG)	0.0383
TCGAGTTCTTGGGTTCTAACCTGTTGCCT (site TCGAGTACTAG)	0.0829
TCGAGTTCTTGGGTTCTAACCTGTTGCCT (site TCGAGTCCTAG)	0.0637
TCGAGTTCTTGGGTTCTAACCTGTTGCCT (site TCGAGTGCTAG)	0.0736
TCGAGTTCTTGGGTTCTAACCTGTTGCCT (site TCGAGTTCTAG)	0.174
TCGCACACTTGGGTTCTAACCTGTTGCTA (site TCGCACACTTA)	0.148
TCGCACACTTGGGTTCTAACCTGTTGCTA (site TCGCACTCTTA)	0.0853
TCGCCTGCTTGGGTTCTAACCTGTTGCCT (site TCGCCTACTAG)	0.282
TCGCCTGCTTGGGTTCTAACCTGTTGCCT (site TCGCCTGCTAG)	0.191
TCGCTAACTTGGGTTCTAACCTGTTGCCT (site GCGCTAACTAG)	0.145
TCGCTAACTTGGGTTCTAACCTGTTGCCT (site TCGCTAACTAG)	0.322

Sequence	recombinant barcode read abundance (log10)
TCGGACCCTTGGGTTCTAACCTGTTGCGA (site TCGAACCCTTC)	1
TCGGACCCTTGGGTTCTAACCTGTTGCGA (site TCGCACCCTTC)	0.12
TCGGACCCTTGGGTTCTAACCTGTTGCGA (site TCGGACCCTTC)	2.73
TCGGACCCTTGGGTTCTAACCTGTTGCGA (site TCGTACCCTTC)	0.23
TCGGAGTCTTGGGTTCTAACCTGTTGCCG (site TCGGAGTCTCA)	0.0935
TCGGAGTCTTGGGTTCTAACCTGTTGCCG (site TCGGAGTCTCG)	1.17
TCGGAGTCTTGGGTTCTAACCTGTTGCGT (site TCGGAGTCTAA)	0.499
TCGGAGTCTTGGGTTCTAACCTGTTGCGT (site TCGGAGTCTAC)	2.55
TCGGAGTCTTGGGTTCTAACCTGTTGCGT (site TCGGAGTCTAG)	0.969
TCGGAGTCTTGGGTTCTAACCTGTTGCGT (site TCGGAGTCTAT)	2.39
TCGGATACTTGGGTTCTAACCTGTTGCAT (site TCGGATACTAA)	0.31
TCGGATACTTGGGTTCTAACCTGTTGCAT (site TCGGATACTAC)	0.0629
TCGGATACTTGGGTTCTAACCTGTTGCAT (site TCGGATACTAG)	0.173
TCGGATACTTGGGTTCTAACCTGTTGCAT (site TCGGATACTAT)	1.57
TCGGATACTTGGGTTCTAACCTGTTGCCT (site TCGGATACTAA)	0.119
TCGGATACTTGGGTTCTAACCTGTTGCCT (site TCGGATACTAC)	0.0175
TCGGATACTTGGGTTCTAACCTGTTGCCT (site TCGGATACTAG)	1.54
TCGGATACTTGGGTTCTAACCTGTTGCCT (site TCGGATACTAT)	0.0399
TCGGATACTTGGGTTCTAACCTGTTGCGT (site TCGGATACTAA)	0.0447
TCGGATACTTGGGTTCTAACCTGTTGCGT (site TCGGATACTAC)	2.05
TCGGATACTTGGGTTCTAACCTGTTGCGT (site TCGGATACTAG)	0.265
TCGGATACTTGGGTTCTAACCTGTTGCGT (site TCGGATACTAT)	1.41

Sequence	recombinant barcode read abundance (log10)
TCGGATGCTTGGGTTCTAACCTGTTGCTT (site TCGAATGCTAG)	0.349
TCGGATGCTTGGGTTCTAACCTGTTGCTT (site TCGGATGCTAA)	0.901
TCGGGGACTTGGGTTCTAACCTGTTGCCG (site TCAGGGACTCT)	0.183
TCGGGGACTTGGGTTCTAACCTGTTGCCG (site TCGGGGACTCG)	0.601
TCGTACCCTTGGGTTCTAACCTGTTGCAA (site AAAATATCTAG)	0.083
TCGTACCCTTGGGTTCTAACCTGTTGCAA (site TCGTACCCTTT)	0.143
TCGTCTACTTGGGTTCTAACCTGTTGCTC (site ATCAACCCTTG)	0.117
TCGTCTACTTGGGTTCTAACCTGTTGCTC (site TCGTCTACTGA)	0.26
TCGTGCCCTTGGGTTCTAACCTGTTGCGT (site CCGTGCCCTAC)	0.0929
TCGTGCCCTTGGGTTCTAACCTGTTGCGT (site TCGTGCCCTAC)	0.14
TCGTTTCCTTGGGTTCTAACCTGTTGCAT (site AGCCAGGCTCC)	0.0113
TCGTTTCCTTGGGTTCTAACCTGTTGCAT (site TCGTTTCCTAT)	0.0275
TCTAAACCTTGGGTTCTAACCTGTTGCCT (site TCTAAACCTAG)	0.205
TCTAAACCTTGGGTTCTAACCTGTTGCCT (site TCTCAACCTAG)	0.0726
TCTAACACTTGGGTTCTAACCTGTTGCCT (site ACTAACACTAG)	0.0882
TCTAACACTTGGGTTCTAACCTGTTGCCT (site CCTAACACTAG)	0.0793
TCTAACACTTGGGTTCTAACCTGTTGCCT (site GCTAACACTAG)	0.0247
TCTAACACTTGGGTTCTAACCTGTTGCCT (site TCTAACACTAG)	0.206
TCTAAGGCTTGGGTTCTAACCTGTTGCCT (site TCAAAGGCTAG)	0.36
TCTAAGGCTTGGGTTCTAACCTGTTGCCT (site TCCAAGGCTAG)	0.108
TCTAAGGCTTGGGTTCTAACCTGTTGCCT (site TCGAAGGCTAG)	0.048
TCTAAGGCTTGGGTTCTAACCTGTTGCCT (site TCTAAGGCTAG)	0.043

Sequence	recombinant barcode read abundance (log10)
TCTAAGTCTTGGGTTCTAACCTGTTGCCA (site TCTAAGTCTAG)	0.045
TCTAAGTCTTGGGTTCTAACCTGTTGCCA (site TCTAAGTCTCG)	0.144
TCTAAGTCTTGGGTTCTAACCTGTTGCCA (site TCTAAGTCTGG)	0.695
TCTAAGTCTTGGGTTCTAACCTGTTGCCA (site TCTAAGTCTTG)	0.0536
TCTACATCTTGGGTTCTAACCTGTTGCCT (site TCTACATCTAG)	0.0728
TCTACATCTTGGGTTCTAACCTGTTGCCT (site TCTACCTCTAG)	0.0374
TCTACATCTTGGGTTCTAACCTGTTGCCT (site TCTACGTCTAG)	0.0302
TCTACATCTTGGGTTCTAACCTGTTGCCT (site TCTACTTCTAG)	0.0355
TCTAGAACTTGGGTTCTAACCTGTTGCCT (site TCTAGAACTAG)	0.0829
TCTAGAACTTGGGTTCTAACCTGTTGCCT (site TCTAGACCTAG)	0.0178
TCTAGAACTTGGGTTCTAACCTGTTGCCT (site TCTAGAGCTAG)	0.0689
TCTAGAACTTGGGTTCTAACCTGTTGCCT (site TCTAGATCTAG)	0.0276
TCTAGACCTTGGGTTCTAACCTGTTGCCA (site TCTAGACCTTG)	0.0618
TCTAGACCTTGGGTTCTAACCTGTTGCCA (site TCTAGTCCTAG)	0.564
TCTATGTCTTGGGTTCTAACCTGTTGCCT (site TCTATGACTAG)	0.182
TCTATGTCTTGGGTTCTAACCTGTTGCCT (site TCTATGTCTAG)	0.107
TCTCAGGCTTGGGTTCTAACCTGTTGCAG (site TATCAGACTCT)	0.0549
TCTCAGGCTTGGGTTCTAACCTGTTGCAG (site TCTCAGGCTCT)	0.445
TCTCCTCCTTGGGTTCTAACCTGTTGCAT (site GAGGTCACTTA)	0.115
TCTCCTCCTTGGGTTCTAACCTGTTGCAT (site TCTCCTCCTAT)	0.679
